Measurements reported in patent publication US20250049867A1, “[…] HERPESVIRUSES” (VIROGIN BIOTECH CANADA LTD., priority 2021, published 2025).
≈ marks a conversion by molar mass, not a printed value.

Columns and labels:
[1] = test system: GL261 cells modified to express mNectin1; test: Orthotopic mNectin1-expressing GL261 glioblastoma model, intratumoral virus injection, survival; assay type: in vivo, mice; conditions: co-expressed with the mIL12 and anti-PD1 payload; GL261-luc-N1
Method: In vivo experiments were conducted to test the efficacy of the HSV oncolytic virus encoding different payload molecules against glioblastoma. Two orthotopic mouse models were used. One orthotopic model used CT2A cells modified to express FLuc which enables imaging post-implantation. The other orthotopic model used GL261 cells modified to express mNectin1, which enabled HSV infection, and also to express FLuc which enabled imaging post-implantation. Cells were implanted intracranially in 12-week-old C57B16 mice by stereotactic injection, and one week later the tumors were injected with the indicated viruses.
The control virus contained only the BAC sequences but not the payload sequence. In the first set of experiments, viruses encoding mouse IL-12 (mIL-12) and/or anti-PD-1 antibody and the control virus were each injected intratumorally at the indicated time and dosage according to FIG. 22A and FIG. 22B.
For the combination screens, GL261-luc-N1 cells were intracranially implanted in 12-week-old C57B16 mice, then 1 week later the tumors were injected with the combination of viruses encoding various candidate payloads.
GL261-luc-N1 or CT2A-luc-N1 cells were intracranially implanted in 12-week-old C57B16 mice, then 1 week later the tumors were injected with the indicated viruses.

[2] = test system: ONCR-1010 with UL30-L774F mutation (ONCR-1012); test: Acyclovir sensitivity plaque titer assay on Vero cell monolayers; assay type: cell-based, HSV; conditions: 96 h, 90% reduction in plaque titer, 4 days
Method: (§1) Acyclovir can be used as a prodrug in HSV-TK mediated suicide gene therapy of cancer, which requires its phosphorylation by HSV thymidine kinase (TK). Virus sensitivity to acyclovir was assayed by adding increasing concentrations of the drug to intact Vero cell monolayers and then infecting with a standard dose of virus. The Vero cell monolayers were incubated for 4 days to allow for virus growth, and then the virus was harvested and the corresponding lysates assayed for virus by plaque assay. The IC90 was calculated as the amount of acyclovir that produced a 90% reduction in plaque titer compared to the untreated control.

ONCR-1010 = test: as above; assay type: cell-based, HSV; conditions: 96 h, 90% reduction in plaque titer, 4 days
Method: as §1

[3] = dosed orally; cited from earlier work

Q: With “15-hydroxyprostaglandin dehydrogenase [PGDH, 15-hydroxyprostaglandin dehydrogenase [NAD(+)]]” as the compound, how does the “efficacy in combination screen (survival)” value [1] read?
A: improved efficacy

Q: With `Nc1nc2c(ncn2COCCO)c(=O)[nH]1` [acyclovir] as the compound, how does the IC90 [2] read?
A: 1.84 µg/mL (≈ 8.17 µM)

Q: And the IC90 (ONCR-1010)?
A: 0.43 µg/mL (≈ 1.91 µM)

Q: And the “bioavailability of acyclovir in the CNS” value [3]?
A: about 1.76 ug/ml
